Here are results for two compounds from article PMC6156138, “Combination of a Latency-Reversing Agent With a Smac Mimetic Minimizes Secondary HIV-1 Infection in vitro” (Frontiers in Microbiology, 2018).

The subject of test [1] is U1 cells. In words: FACS analysis of active caspase-3 expression. Format: cell-based. The settings on record: 24 h, birinapant 50 nM, PEP005 5 nM, TNF-α 10 ng/ml. The protocol:
Intracellular HIV-1 p24 levels and active form of caspase-3 expression were determined as previously described ([Hattori et al., 2009]; [Duro et al., 2010]; [Matsuda et al., 2015]). In brief, ACH-2 cells or U1 cells (2.5 × 10^5 cells/mL) were fixed with 1% paraformaldehyde/phosphate buffered saline (PBS) for 20 min and were permeabilized with Flow Cytometry Perm Buffer (TONBO biosciences, San Diego, CA, United States). After incubation on ice for 5 min, the cells were stained with anti-HIV-1 p24 (24-4)-FITC mAb (Santa Cruz Biotechnology, Dallas, TX, United States) and/or with Alexa Fluor 647-conjugated anti-active caspase-3 mAb (C92-605) (BD Pharmingen, San Diego, CA, United States) for 30 min on ice. Cells were then analyzed on a BD FACSVerse flow cytometer (BD Biosciences, Franklin Lakes, NJ, United States). The corrected data were analyzed with FlowJo software (Tree Star, San Carlos, CA, United States).
FIGURE 3 (A,B) ACH-2 (A) and U1 cells (B) were treated with birinapant (50 nM), PEP005 (5 nM), birinapant plus PEP005, TNF-α (10 ng/ml), and intracellular expression of caspase-3 was examined after 24 h of incubation. The percentage of active caspase-3 cells was determined by comparison with unstimulated cells. (C) ACH-2 cells after 24 h of PEP005 (0∼50 nM) treatment with or without birinapant (50 nM) were separately analyzed in p24^+ and p24^- populations for caspase-3 expression.
In general terms: Flow cytometry measures light scatter and fluorescence of single cells or particles in a stream.

The subject of test [2] is primary CD4+ T-cells from HIV-1-infected patients. In words: HIV-1 reactivation in primary CD4+ T-cells from HIV-1 patients (HIV-1 mRNA). The test is classed as cell-based. To be noted: primary CD4+ T-cells from HIV-1-infected patients under cART, 24 h; PEP005 5 nM, birinapant 50 nM. The text has this:
Peripheral blood samples were collected from HIV-1-infected patients who had been receiving combination antiretroviral therapy (cART) for at least 6 years. All subjects maintained lower viral load (<20 copies/ml) (except for occasional blips) during therapy. CD4^+ T-cell counts in peripheral blood samples ranged from 464–807 cells/mm^3 (average 601 cells/mm^3), and plasma viral loads were <41.3 copies/ml as measured by qPCR (Roche COBAS AmpliPrep/COBAS TaqMan HIV-1 Test version 2.0) at the time of study enrollment. Written informed consent was obtained from all the subjects. […] The total RNA was extracted, cDNA was synthesized, and quantitative real-time PCR analyses for studying the expression of intracellular HIV-1 RNA were carried out as shown above. The HIV RNA copies were calculated using a standard curve obtained from serially diluted HIV-1 plasmid, the normalized values [HIV RNA copies/input RNA (ng)] with a drug were compared with that without a drug, and the relative increase in HIV-1 RNA levels in the presence of a drug was determined.
FIGURE 5 (A) Changes in the HIV-1 mRNA expression on primary CD4^+ T-cells from HIV-1-infected patients in the presence of PEP005 and/or birinapant. […] Statistical significance was determined using Mann-Whitney U test, where P-value < 0.05 was considered to be significant.

Test [3] deals with latent HIV-1-infected ACH-2 cells. In words: HIV reactivation from latent cells: intracellular HIV-1 RNA (qRT-PCR). The test is classed as cell-based. To be noted: 24 h (Figure 1C). The protocol: (§1) The reactivation of HIV-1 from latently infected cells was determined by the measurement of supernatant p24 antigen and intracellular HIV-1 RNA levels. ACH-2 cells or U1 cells (5 × 10^5 cells/mL) were placed in 96-well plates, and then the cells were incubated with different concentrations of drugs for 24 h to extract RNA and for 48 h to collect the supernatant. The increase in supernatant p24 antigen levels was measured using […] G1200 (Fujirebio, Tokyo, Japan). The total RNA was extracted using an RNeasy Mini Kit (Qiagen, Hilden, Germany), following the manufacturer’s protocols. The cDNA was synthesized using PrimeScript RT Master Mix (Takara Bio, Shiga, Japan), and quantitative real-time PCR analyses for the intracellular HIV-1 RNA were carried out with PowerUp^TM SYBR Green Master Mix (Applied Biosystems, Foster City, CA, United States). The oligonucleotide primers used were as follows: 5′-[…]-3′ (forward) and 5′-[…]-3′ (reverse) for HIV-RNA detection; 5′-[…]-3′ (forward) and 5′-[…]-3′ (reverse) for β-actin. The HIV-RNA expressions were normalized with that of β-actin, which was indicated as the relative quantity, and the increase in HIV-1 RNA levels in the presence of a drug was compared with that without a drug.
(§2) FIGURE 1 (A,B) The increase in viral production from ACH-2 cells (A) and U1 cells (B) was examined by supernatant p24 antigen levels on day 2. […]
Background: Real-time PCR tracks product formation cycle by cycle.

Test [4] relates to latent HIV-1-infected U1 cells. The test is described as above. The test is classed as cell-based. To be noted: 24 h (Figure 1D). The protocol:
as §1, §2

Test [5] concerns J1.1 cells. In words: Virus production in J1.1 cells (viral RNA copies in supernatant). The test is classed as cell-based, HIV-1. To be noted: birinapant combined with TNF-α 20 ng/mL, 48 h. The protocol: Cells were treated with birinapant with ( [drawing 1] ) or without ( [drawing 2] ) TNF-α (20 ng/mL). After 48 h incubation, culture supernatant was harvested, and viral RNA was extracted. Viral copy numbers in culture supernatant were measured by real-time RT-PCR. Click here for additional data file.

For `C/C=C(/C)C(=O)O[C@H]1C(C)=C[C@]23C(=O)[C@@H](C=C(CO)[C@@H](O)[C@]12O)[C@H]1[C@@H](C[C@H]3C)C1(C)C` [PEP005, ingenol-3-angelate], in test [1], the “percentage of active caspase-3 cells” value is reported as 10.8%. Also, the “HIV-1 mRNA expression” value in test [2] is given as “elevated the expression of HIV-1 mRNA”.

Regarding `CC[C@H](NC(=O)[C@H](C)NC)C(=O)N1C[C@@H](O)C[C@H]1Cc1c(-c2[nH]c3cc(F)ccc3c2C[C@@H]2C[C@H](O)CN2C(=O)[C@H](CC)NC(=O)[C@H](C)NC)[nH]c2cc(F)ccc12` [Birinapant], the “intracellular HIV-1 mRNA levels” value in test [3] and in test [4] was “only had a minor effect on HIV-1 reactivation” in each case. Further, the “virus production (viral copy numbers in culture supernatant)” value in test [5] is on record as “suppresses virus production”. Moreover, in test [2], the “HIV-1 mRNA expression” value is recorded as “failed to change the HIV-1 mRNA expression in most samples”.
